The results in this text go back to ChEMBL document CHEMBL1909046, “DrugMatrix in vitro pharmacology data”.

For orientation: pIC50 means −log10 of the IC50, conventionally taken in molar units. In general, pKi refers to the Ki on a negative log10 scale, so that one unit is a factor of ten.

pIC50, pKi: −log10 of the molar value.

Chain of Prostaglandin G/H synthase 1 (P23219 whole entry): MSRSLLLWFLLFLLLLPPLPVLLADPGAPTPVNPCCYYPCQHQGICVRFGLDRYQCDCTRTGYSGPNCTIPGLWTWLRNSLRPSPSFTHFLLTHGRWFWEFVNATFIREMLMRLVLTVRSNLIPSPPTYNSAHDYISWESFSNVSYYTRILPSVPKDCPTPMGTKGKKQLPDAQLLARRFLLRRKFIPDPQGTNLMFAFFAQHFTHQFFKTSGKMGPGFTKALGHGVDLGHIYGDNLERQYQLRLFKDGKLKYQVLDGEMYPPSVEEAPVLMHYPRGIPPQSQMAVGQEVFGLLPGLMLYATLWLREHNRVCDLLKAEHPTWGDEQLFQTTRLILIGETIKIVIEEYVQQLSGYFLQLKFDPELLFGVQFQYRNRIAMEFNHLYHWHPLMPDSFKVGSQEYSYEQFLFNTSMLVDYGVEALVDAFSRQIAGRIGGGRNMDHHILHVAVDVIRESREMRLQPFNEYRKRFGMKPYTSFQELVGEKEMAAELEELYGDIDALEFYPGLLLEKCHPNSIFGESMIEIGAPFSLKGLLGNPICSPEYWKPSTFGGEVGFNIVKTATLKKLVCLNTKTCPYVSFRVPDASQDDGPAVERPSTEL

The target in one assay is T1, Nitric oxide synthase, inducible (Mus musculus, UniProt P29477).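 Note: inhibition of iNOS enzyme activity measured with L-arginine as substrate; in other assays of this panel Not Active means under 50% inhibition at 10 µM.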
T1 sequence (P29477 whole entry): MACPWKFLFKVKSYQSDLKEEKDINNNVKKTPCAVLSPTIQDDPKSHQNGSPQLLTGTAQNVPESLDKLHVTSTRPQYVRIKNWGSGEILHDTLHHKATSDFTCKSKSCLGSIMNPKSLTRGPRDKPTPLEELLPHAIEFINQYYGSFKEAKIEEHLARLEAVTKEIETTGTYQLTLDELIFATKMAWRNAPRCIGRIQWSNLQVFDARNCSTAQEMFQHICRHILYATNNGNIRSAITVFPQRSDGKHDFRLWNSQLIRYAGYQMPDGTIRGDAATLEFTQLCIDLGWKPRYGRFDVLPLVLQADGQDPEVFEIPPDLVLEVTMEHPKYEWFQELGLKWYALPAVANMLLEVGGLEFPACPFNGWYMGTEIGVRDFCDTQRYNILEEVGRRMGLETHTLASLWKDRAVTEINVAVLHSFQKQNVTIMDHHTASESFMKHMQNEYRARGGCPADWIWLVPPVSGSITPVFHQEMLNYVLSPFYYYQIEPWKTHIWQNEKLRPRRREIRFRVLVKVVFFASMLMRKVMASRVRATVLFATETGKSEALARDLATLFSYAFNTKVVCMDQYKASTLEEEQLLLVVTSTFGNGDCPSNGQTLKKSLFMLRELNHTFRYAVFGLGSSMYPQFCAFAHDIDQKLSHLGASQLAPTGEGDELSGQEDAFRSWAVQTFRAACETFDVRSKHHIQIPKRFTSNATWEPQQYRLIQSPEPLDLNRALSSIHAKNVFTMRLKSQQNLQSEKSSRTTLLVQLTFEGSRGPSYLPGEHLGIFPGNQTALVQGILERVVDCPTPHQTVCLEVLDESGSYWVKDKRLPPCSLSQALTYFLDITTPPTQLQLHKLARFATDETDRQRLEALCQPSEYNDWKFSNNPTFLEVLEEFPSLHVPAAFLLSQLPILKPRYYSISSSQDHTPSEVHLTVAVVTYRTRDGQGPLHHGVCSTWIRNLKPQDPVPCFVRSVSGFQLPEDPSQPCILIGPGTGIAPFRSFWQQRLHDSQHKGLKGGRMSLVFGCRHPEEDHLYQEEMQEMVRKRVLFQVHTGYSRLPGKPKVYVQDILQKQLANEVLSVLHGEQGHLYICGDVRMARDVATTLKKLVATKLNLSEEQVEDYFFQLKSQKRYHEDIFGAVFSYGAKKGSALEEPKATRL
Experiment: not given
Details: not given
Details: species or system Escherichia coli.
With `CN(C)C(=O)Oc1cc(OC(=O)N(C)C)cc(C(O)CNC(C)(C)C)c1` (stereo unspecified) [BAMBUTEROL], the IC50 entry is recorded as “Not Active”.
Turning to `CN(C)CCCN1c2ccccc2Sc2ccccc21` [PROMAZINE], the IC50 entry is reported as “Not Active”.
Still for that read-out and setting: then `C1CCC(C(CC2CCCCN2)C2CCCCC2)CC1` (stereo unspecified) [PERHEXILINE], with “Not Active”; and `N=C(N)NCCN1CCCCCCC1` [GUANETHIDINE], with “Not Active”; and `CC(C)CN(C[C@@H](O)[C@H](Cc1ccccc1)NC(=O)O[C@H]1CCOC1)S(=O)(=O)c1ccc(N)cc1`, with “Not Active”.
Take `Nc1c(Br)cc(Br)cc1CN[C@H]1CC[C@H](O)CC1` [AMBROXOL]: the IC50 entry was “Not Active”.
The same measure, in the same setting: in the case of `CC1(C)S[C@@H]2[C@H](NC(=O)Cc3ccccc3)C(=O)N2[C@H]1C(=O)O` [PENICILLIN G] it was “Not Active”.
Same read-out and setting: in the case of `CCCCN1CCCC[C@H]1C(=O)Nc1c(C)cccc1C` [LEVOBUPIVACAINE] it was “Not Active”; in that of `Cc1ccc(-c2cc(C(F)(F)F)nn2-c2ccc(S(N)(=O)=O)cc2)cc1` [CELECOXIB], “Not Active”.

The next assay addresses Prostaglandin G/H synthase 1 (Homo sapiens, UniProt P23219). Kind of assay: biochemical. The class given is tissue-based, Platelet. Particulars: platelet.
Take `CN(C)C(=O)Oc1cc(OC(=O)N(C)C)cc(C(O)CNC(C)(C)C)c1` (stereo unspecified) [BAMBUTEROL]: the IC50 entry is recorded as “Not Active”.
On the same count and under the same terms, in the case of `CN(C)CCCN1c2ccccc2Sc2ccccc21` [PROMAZINE] it was “Not Active”.
Same read-out and setting: in the case of `C1CCC(C(CC2CCCCN2)C2CCCCC2)CC1` (stereo unspecified) [PERHEXILINE] it was “Not Active”; in that of `N=C(N)NCCN1CCCCCCC1` [GUANETHIDINE], “Not Active”.
On the same count and under the same terms, in the case of `CC(C)CN(C[C@@H](O)[C@H](Cc1ccccc1)NC(=O)O[C@H]1CCOC1)S(=O)(=O)c1ccc(N)cc1` it was “Not Active”; in that of `Nc1c(Br)cc(Br)cc1CN[C@H]1CC[C@H](O)CC1` [AMBROXOL], “Not Active”.
For the compound `CC1(C)S[C@@H]2[C@H](NC(=O)Cc3ccccc3)C(=O)N2[C@H]1C(=O)O` [PENICILLIN G], the IC50 result is listed as “Not Active”.
On the same count and under the same terms, in the case of `CCCCN1CCCC[C@H]1C(=O)Nc1c(C)cccc1C` [LEVOBUPIVACAINE] it was “Not Active”.

Test system in the next assay: not listed separately
Kind of assay: DRUGMATRIX: Phosphodiesterase PDE4 enzyme inhibition (substrate: [3H]cAMP + cAMP). Particulars: u-937; Not Active = under 50% inhibition at 10 µM.
Take `CN(C)C(=O)Oc1cc(OC(=O)N(C)C)cc(C(O)CNC(C)(C)C)c1` (stereo unspecified) [BAMBUTEROL]: the IC50 entry is listed as “Not Active” and the Ki result is given as “Not Active”.
In the case of `CN(C)CCCN1c2ccccc2Sc2ccccc21` [PROMAZINE], the IC50 entry is “Not Active” and the Ki entry is “Not Active”.
For `C1CCC(C(CC2CCCCN2)C2CCCCC2)CC1` (stereo unspecified) [PERHEXILINE], the IC50 result was “Not Active” and the Ki result is on record as “Not Active”.
Take `N=C(N)NCCN1CCCCCCC1` [GUANETHIDINE]: the IC50 entry was “Not Active” and the Ki entry was “Not Active”.
As for `CC(C)CN(C[C@@H](O)[C@H](Cc1ccccc1)NC(=O)O[C@H]1CCOC1)S(=O)(=O)c1ccc(N)cc1`, the IC50 entry is recorded as “Not Active” and the Ki result was “Not Active”.
For the compound `Nc1c(Br)cc(Br)cc1CN[C@H]1CC[C@H](O)CC1` [AMBROXOL], the IC50 result is “Not Active” and the Ki result was “Not Active”.
Consider `CC1(C)S[C@@H]2[C@H](NC(=O)Cc3ccccc3)C(=O)N2[C@H]1C(=O)O` [PENICILLIN G], for which the IC50 result is reported as “Not Active” and the Ki result is recorded as “Not Active”.
For `CCCCN1CCCC[C@H]1C(=O)Nc1c(C)cccc1C` [LEVOBUPIVACAINE], the IC50 entry is “Not Active” and the Ki entry is reported as “Not Active”.

The same assay, now with this note: u-937; Not Active = under 50% inhibition at 10 µM; read-out: IC50.
`Cc1ccc(-c2cc(C(F)(F)F)nn2-c2ccc(S(N)(=O)=O)cc2)cc1` [CELECOXIB]: the negative logarithm of the IC50 (pIC50) is 5.03.

The target in a further assay is T2, Adenosine receptor A3 (Homo sapiens, UniProt P0DMS8).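 Note: radioligand binding assay with AB-MECA serving as the labeled ligand; in other assays of this panel Not Active means under 50% inhibition at 10 µM.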
T2 sequence (P0DMS8 whole entry): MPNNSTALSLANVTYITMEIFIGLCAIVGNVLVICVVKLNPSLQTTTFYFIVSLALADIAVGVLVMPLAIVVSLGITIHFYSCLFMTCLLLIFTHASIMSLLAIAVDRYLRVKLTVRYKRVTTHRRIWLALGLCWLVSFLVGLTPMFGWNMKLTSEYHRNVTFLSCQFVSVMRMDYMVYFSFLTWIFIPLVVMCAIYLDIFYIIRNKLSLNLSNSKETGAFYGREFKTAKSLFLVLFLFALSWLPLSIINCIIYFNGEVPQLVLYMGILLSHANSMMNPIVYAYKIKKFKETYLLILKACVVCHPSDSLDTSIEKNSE
Experiment: not given
The class given is cell membranes, CHO-K1, Membrane. Particulars: cho-k1.
`CN(C)C(=O)Oc1cc(OC(=O)N(C)C)cc(C(O)CNC(C)(C)C)c1` (stereo unspecified) [BAMBUTEROL]: the IC50 result was “Not Active”.
With `CN(C)CCCN1c2ccccc2Sc2ccccc21` [PROMAZINE], the IC50 entry is on record as “Not Active”.
Still for that read-out and setting: in the case of `C1CCC(C(CC2CCCCN2)C2CCCCC2)CC1` (stereo unspecified) [PERHEXILINE] it was “Not Active”; in that of `N=C(N)NCCN1CCCCCCC1` [GUANETHIDINE], “Not Active”; in that of `CC(C)CN(C[C@@H](O)[C@H](Cc1ccccc1)NC(=O)O[C@H]1CCOC1)S(=O)(=O)c1ccc(N)cc1`, “Not Active”.
As for `Nc1c(Br)cc(Br)cc1CN[C@H]1CC[C@H](O)CC1` [AMBROXOL], the IC50 entry is reported as “Not Active”.
Same read-out and setting: in the case of `CC1(C)S[C@@H]2[C@H](NC(=O)Cc3ccccc3)C(=O)N2[C@H]1C(=O)O` [PENICILLIN G] it was “Not Active”.
In the case of `CCCCN1CCCC[C@H]1C(=O)Nc1c(C)cccc1C` [LEVOBUPIVACAINE], the IC50 result is given as “Not Active”.

The assay is the same for the next values; noted with them: read-out: IC50.
Take `Cc1ccc(-c2cc(C(F)(F)F)nn2-c2ccc(S(N)(=O)=O)cc2)cc1` [CELECOXIB]: the pIC50 is 4.61.

The assay is the same for the next values; noted with them: read-out: Ki.
For the compound `Cc1ccc(-c2cc(C(F)(F)F)nn2-c2ccc(S(N)(=O)=O)cc2)cc1` [CELECOXIB], the pKi is 4.86.

Test system in another assay: not listed separately
Kind of assay: DRUGMATRIX: ATPase, Na+/K+ enzyme inhibition (substrate: ATP). The assay is classed as tissue-based, Sus scrofa, Heart. Particulars: Not Active = under 50% inhibition at 10 µM.
For `CN(C)C(=O)Oc1cc(OC(=O)N(C)C)cc(C(O)CNC(C)(C)C)c1` (stereo unspecified) [BAMBUTEROL], the IC50 entry was “Not Active” and the Ki entry is reported as “Not Active”.
Regarding `CN(C)CCCN1c2ccccc2Sc2ccccc21` [PROMAZINE], the IC50 result is “Not Active” and the Ki entry is “Not Active”.
Consider `C1CCC(C(CC2CCCCN2)C2CCCCC2)CC1` (stereo unspecified) [PERHEXILINE], for which the IC50 result is on record as “Not Active” and the Ki entry is “Not Active”.
As for `N=C(N)NCCN1CCCCCCC1` [GUANETHIDINE], the IC50 entry is given as “Not Active” and the Ki entry is “Not Active”.
For the compound `CC(C)CN(C[C@@H](O)[C@H](Cc1ccccc1)NC(=O)O[C@H]1CCOC1)S(=O)(=O)c1ccc(N)cc1`, the IC50 result is recorded as “Not Active” and the Ki result is listed as “Not Active”.
Consider `Nc1c(Br)cc(Br)cc1CN[C@H]1CC[C@H](O)CC1` [AMBROXOL], for which the IC50 result is listed as “Not Active” and the Ki result is “Not Active”.
On to `CC1(C)S[C@@H]2[C@H](NC(=O)Cc3ccccc3)C(=O)N2[C@H]1C(=O)O` [PENICILLIN G], for which the IC50 entry is given as “Not Active” and the Ki result is “Not Active”.
For the compound `CCCCN1CCCC[C@H]1C(=O)Nc1c(C)cccc1C` [LEVOBUPIVACAINE], the IC50 result was “Not Active” and the Ki entry is on record as “Not Active”.
For the compound `Cc1ccc(-c2cc(C(F)(F)F)nn2-c2ccc(S(N)(=O)=O)cc2)cc1` [CELECOXIB], the IC50 entry was “Not Active” and the Ki result was “Not Active”.

Another assay has as its target T3, Neutrophil elastase (Homo sapiens, UniProt P08246).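 Note: inhibition of neutrophil elastase enzyme activity, measured with a p-nitroanilide-linked peptide substrate; in other assays of this panel Not Active means under 50% inhibition at 10 µM.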
T3 sequence (P08246 whole entry): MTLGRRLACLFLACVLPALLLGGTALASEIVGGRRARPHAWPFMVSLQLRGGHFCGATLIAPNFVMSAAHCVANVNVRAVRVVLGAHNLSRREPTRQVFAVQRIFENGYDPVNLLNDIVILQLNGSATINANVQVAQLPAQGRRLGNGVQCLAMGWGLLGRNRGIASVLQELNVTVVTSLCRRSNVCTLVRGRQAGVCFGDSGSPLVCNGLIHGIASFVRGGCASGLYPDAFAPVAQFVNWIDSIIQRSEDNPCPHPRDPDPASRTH
Experiment: not given
The assay is classed as tissue-based.
Details: not given
On to `CN(C)C(=O)Oc1cc(OC(=O)N(C)C)cc(C(O)CNC(C)(C)C)c1` (stereo unspecified) [BAMBUTEROL], for which the IC50 result is given as “Not Active”.
`CN(C)CCCN1c2ccccc2Sc2ccccc21` [PROMAZINE]: the IC50 entry is reported as “Not Active”.
On the same count and under the same terms, then `C1CCC(C(CC2CCCCN2)C2CCCCC2)CC1` (stereo unspecified) [PERHEXILINE], with “Not Active”; and `N=C(N)NCCN1CCCCCCC1` [GUANETHIDINE], with “Not Active”; and `CC(C)CN(C[C@@H](O)[C@H](Cc1ccccc1)NC(=O)O[C@H]1CCOC1)S(=O)(=O)c1ccc(N)cc1`, with “Not Active”.
For the compound `Nc1c(Br)cc(Br)cc1CN[C@H]1CC[C@H](O)CC1` [AMBROXOL], the IC50 result is reported as “Not Active”.
In the case of `CC1(C)S[C@@H]2[C@H](NC(=O)Cc3ccccc3)C(=O)N2[C@H]1C(=O)O` [PENICILLIN G], the IC50 entry is given as “Not Active”.
Regarding `CCCCN1CCCC[C@H]1C(=O)Nc1c(C)cccc1C` [LEVOBUPIVACAINE], the IC50 result is listed as “Not Active”.
On the same count and under the same terms, then `Cc1ccc(-c2cc(C(F)(F)F)nn2-c2ccc(S(N)(=O)=O)cc2)cc1` [CELECOXIB], with “Not Active”.
